The values that follow come from patent US20230398130A1, “METHODS AND COMPOSITIONS FOR DIFFERENTIATING STEM CELLS” (Massachusetts Institute of Technology, priority 2020, published 2023).

Counter-ions that a name gives are not always drawn.

Assay [1] has as its system ISC-enriched organoids. The assay can be described thus: Primary screen, 384-well 2.5-D organoid differentiation (ENR+CD, 6 days): basal lysozyme secretion (LYZ.NS). The assay is classed as cell-based, murine. The following applies: primary screen. From the text:
High-throughput screening.

Assay [2] relates to ISC-enriched organoids. The assay can be described thus: Primary screen, 384-well 2.5-D organoid differentiation (ENR+CD, 6 days, Target Selective Inhibitor Library, vs whole-plate median): ATP (CellTiter-Glo 3D, CTG). The following applies: for Z.CTG: standard z score of FC.

On to `CCN(CC)C(=O)c1ccc(C2=CC3(CCNCC3)Oc3cccc(O)c32)cc1` [ADL5859 HCl], for which the Z.LYZ.NS in the assay with ISC-enriched organoids [1] (dose 0.40 uM, standard z score of FC) worked out at 0.163. The Z.CTG in the assay with ISC-enriched organoids [2] (primary screen, dose 0.08 uM) is 0.645; in the assay with ISC-enriched organoids [2] (primary screen, dose 0.40 uM), 0.389; with ISC-enriched organoids [2] (primary screen, dose 2.00 uM), 0.695; in the assay with ISC-enriched organoids [2] (primary screen, dose 10.00 uM), 0.465.

Take `CCOc1nc2cccc(C(=O)O)c2n1Cc1ccc(-c2ccccc2-c2nnn[nH]2)cc1` [Candesartan]: the SSMD.LYZ.NS in the assay with ISC-enriched organoids [1] (strictly standardized mean difference of replicates, four lines per treatment = four doses (dose not given), column head inferred) is −0.474. The Z.CTG with ISC-enriched organoids [2] (Dose 0.40 uM) is recorded as −0.299; in the assay with ISC-enriched organoids [2] (Dose 2.00 uM), −0.473; in the assay on ISC-enriched organoids [2] (Dose 10.00 uM) it was −0.604.

For `Cc1cc(OCCCS(C)(=O)=O)cc(C)c1-c1cccc(COc2ccc3c(c2)OC[C@H]3CC(=O)O)c1` [TAK-875], the “Z.CTG (standard z score)” value is 0.572 in the assay on ISC-enriched organoids [2] (Dose 0.08 uM, primary screen); −0.392 in the assay with ISC-enriched organoids [2] (Dose 0.40 uM, primary screen); −0.376 with ISC-enriched organoids [2] (Dose 2.00 uM, primary screen); −0.694 in the assay with ISC-enriched organoids [2] (Dose 10.00 uM, primary screen).

Turning to `CN1CC(=O)N2[C@H](c3ccc4c(c3)OCO4)c3[nH]c4ccccc4c3C[C@@H]2C1=O` [Tadalafil], the “Z.CTG (standard z score)” value in the assay with ISC-enriched organoids [2] (Dose 0.08 uM, primary screen) is on record as −0.046; in the assay on ISC-enriched organoids [2] (Dose 0.40 uM, primary screen) it was 0.863; in the assay on ISC-enriched organoids [2] (Dose 2.00 uM, primary screen) it was 1.042; in the assay with ISC-enriched organoids [2] (Dose 10.00 uM, primary screen), 0.644.

As for `COc1cc2c(cc1OC)CN(CCc1ccc(NC(=O)c3cc(OC)c(OC)cc3NC(=O)c3cnc4ccccc4c3)cc1)CC2` [Tariquidar], the “Z.CTG (standard z score)” value in the assay with ISC-enriched organoids [2] (Dose 0.08 uM, primary screen) was −0.280; in the assay on ISC-enriched organoids [2] (Dose 0.40 uM, primary screen), 0.128; in the assay on ISC-enriched organoids [2] (Dose 2.00 uM, primary screen), 0.899; with ISC-enriched organoids [2] (Dose 10.00 uM, primary screen), 0.543.

For the molecule `CCCc1nc2c(C)cc(-c3nc4ccccc4n3C)cc2n1Cc1ccc(-c2ccccc2C(=O)O)cc1` [Telmisartan], the “Z.CTG (standard z score)” value in the assay with ISC-enriched organoids [2] (Dose 0.08 uM, primary screen) was 0.320; in the assay with ISC-enriched organoids [2] (Dose 0.40 uM, primary screen), 0.584; in the assay on ISC-enriched organoids [2] (Dose 2.00 uM, primary screen), 0.153; with ISC-enriched organoids [2] (Dose 10.00 uM, primary screen), 0.549.

With `CC(C)OC(=O)OCOP(=O)(CO[C@H](C)Cn1cnc2c(N)ncnc21)OCOC(=O)OC(C)C` [Tenofovir Disoproxil Fumarate], the “Z.CTG (standard z score)” value is reported as 0.172 with ISC-enriched organoids [2] (dose 0.08 uM), −0.004 in the assay on ISC-enriched organoids [2] (dose 0.40 uM), −0.378 in the assay with ISC-enriched organoids [2] (dose 2.00 uM) and −1.034 in the assay on ISC-enriched organoids [2] (dose 10.00 uM).

Turning to `CCCSc1nc(N[C@@H]2C[C@H]2c2ccc(F)c(F)c2)c2nnn([C@@H]3C[C@H](OCCO)[C@@H](O)[C@H]3O)c2n1` [Ticagrelor], the “Z.CTG (standard z score)” value in the assay with ISC-enriched organoids [2] (dose 0.08 uM) is given as −0.190; in the assay on ISC-enriched organoids [2] (dose 0.40 uM) it was −0.069; with ISC-enriched organoids [2] (dose 2.00 uM), −0.645; in the assay with ISC-enriched organoids [2] (dose 10.00 uM), −0.576.

Regarding `Clc1ccccc1CN1CCc2sccc2C1` [Ticlopidine HCl], the “Z.CTG (standard z score)” value in the assay with ISC-enriched organoids [2] (dose 0.08 uM) is on record as −0.281; with ISC-enriched organoids [2] (dose 0.40 uM), −0.097; in the assay on ISC-enriched organoids [2] (dose 2.00 uM), −0.559; in the assay on ISC-enriched organoids [2] (dose 10.00 uM) it was −0.013.

In the case of `O=c1oc2cc(O)ccc2s1` [Tioxolone], the “Z.CTG (standard z score)” value worked out at 0.586 in the assay with ISC-enriched organoids [2] (dose 0.08 uM), 0.212 in the assay with ISC-enriched organoids [2] (dose 0.40 uM), 0.105 in the assay with ISC-enriched organoids [2] (dose 2.00 uM) and 0.783 in the assay with ISC-enriched organoids [2] (dose 10.00 uM).

As to `c1ccc(CC2=NCCN2)cc1` [Tolazoline HCl], the “Z.CTG (standard z score)” value is given as 0.585 in the assay on ISC-enriched organoids [2] (dose 0.08 uM), 0.530 in the assay with ISC-enriched organoids [2] (dose 0.40 uM), −0.122 in the assay on ISC-enriched organoids [2] (dose 2.00 uM) and −0.496 with ISC-enriched organoids [2] (dose 10.00 uM).

For `Cc1c(Cl)cccc1Nc1ccccc1C(=O)O` [Tolfenamic Acid], the “Z.CTG (standard z score)” value in the assay with ISC-enriched organoids [2] (dose 0.08 uM) is reported as 0.467; in the assay with ISC-enriched organoids [2] (dose 0.40 uM), −0.007; in the assay with ISC-enriched organoids [2] (dose 2.00 uM), −0.379; in the assay on ISC-enriched organoids [2] (dose 10.00 uM) it was −0.276.

With `Cc1ccccc1C(=O)Nc1ccc(C(=O)N2CCCC(O)c3cc(Cl)ccc32)c(C)c1` (stereo not drawn) [Tolvaptan], the “Z.CTG (standard z score)” value in the assay on ISC-enriched organoids [2] (dose 0.08 uM) was 0.227; in the assay with ISC-enriched organoids [2] (dose 0.40 uM), −0.019; in the assay on ISC-enriched organoids [2] (dose 2.00 uM), −0.225; with ISC-enriched organoids [2] (dose 10.00 uM) it was −0.249.

Turning to `CCOC(=O)N1c2ccc(C(F)(F)F)cc2[C@@H](N(Cc2cc(C(F)(F)F)cc(C(F)(F)F)c2)C(=O)OC)C[C@H]1CC` [Torcetrapib], the “Z.CTG (standard z score)” value is 0.677 in the assay on ISC-enriched organoids [2] (dose 0.08 uM), 0.147 in the assay on ISC-enriched organoids [2] (dose 0.40 uM), −0.289 in the assay on ISC-enriched organoids [2] (dose 2.00 uM) and −0.360 in the assay with ISC-enriched organoids [2] (dose 10.00 uM).

`CN(C)CCOc1ccc(/C(=C(/CCCl)c2ccccc2)c2ccccc2)cc1` [Toremifene Citrate]: the “Z.CTG (standard z score)” value in the assay on ISC-enriched organoids [2] (dose 0.08 uM) is listed as 0.822; in the assay with ISC-enriched organoids [2] (dose 0.40 uM), 0.285; in the assay on ISC-enriched organoids [2] (dose 2.00 uM), −2.417; in the assay with ISC-enriched organoids [2] (dose 10.00 uM), −3.335.

Turning to `Cn1c(=O)cc(N2CCC[C@@H](N)C2)n(Cc2cc(F)ccc2C#N)c1=O` [Trelagliptin], the “Z.CTG (standard z score)” value was 0.482 with ISC-enriched organoids [2] (dose 0.08 uM), −0.181 with ISC-enriched organoids [2] (dose 0.40 uM), 0.120 in the assay on ISC-enriched organoids [2] (dose 2.00 uM) and 0.322 in the assay with ISC-enriched organoids [2] (dose 10.00 uM).

For `Nc1nc(N)c2nc(-c3ccccc3)c(N)nc2n1` [Triamterene], the “Z.CTG (standard z score)” value in the assay on ISC-enriched organoids [2] (dose 0.08 uM) is −0.070; in the assay with ISC-enriched organoids [2] (dose 0.40 uM), −0.394; in the assay with ISC-enriched organoids [2] (dose 2.00 uM), −0.241; in the assay with ISC-enriched organoids [2] (dose 10.00 uM), −1.103.

In the case of `CCC(COC(=O)c1cc(OC)c(OC)c(OC)c1)(c1ccccc1)N(C)C` (stereo not drawn) [Trimebutine], the “Z.CTG (standard z score)” value in the assay with ISC-enriched organoids [2] (dose 0.08 uM) was 0.017; with ISC-enriched organoids [2] (dose 0.40 uM), −0.483; in the assay with ISC-enriched organoids [2] (dose 2.00 uM), −2.409; in the assay with ISC-enriched organoids [2] (dose 10.00 uM), −2.545.

Consider `CNCc1ccc(-c2cc(-c3nc(-c4ccc(S(=O)(=O)C(C)C)cc4)cnc3N)on2)cc1` [VE-822], for which the “Z.CTG (standard z score)” value with ISC-enriched organoids [2] (dose 0.08 uM) is recorded as −0.351; with ISC-enriched organoids [2] (dose 0.40 uM), −0.685; in the assay with ISC-enriched organoids [2] (dose 2.00 uM), −1.713; with ISC-enriched organoids [2] (dose 10.00 uM) it was −4.212.

For `O=c1ncn2nc(Sc3ccc(F)cc3F)ccc2c1-c1c(Cl)cccc1Cl` [VX-745], the “Z.CTG (standard z score)” value is reported as 0.445 in the assay with ISC-enriched organoids [2] (dose 0.08 uM), 0.349 with ISC-enriched organoids [2] (dose 0.40 uM), 0.044 in the assay on ISC-enriched organoids [2] (dose 2.00 uM) and 0.053 in the assay on ISC-enriched organoids [2] (dose 10.00 uM).

Turning to `CCO[C@@H]1OC(=O)C[C@@H]1NC(=O)[C@@H]1CCCN1C(=O)[C@@H](NC(=O)c1ccc(N)c(Cl)c1)C(C)(C)C` [VX-765], the “Z.CTG (standard z score)” value is given as 0.368 in the assay on ISC-enriched organoids [2] (dose 0.08 uM), 0.555 with ISC-enriched organoids [2] (dose 0.40 uM), 0.393 in the assay on ISC-enriched organoids [2] (dose 2.00 uM) and 0.608 in the assay on ISC-enriched organoids [2] (dose 10.00 uM).

Consider `C[C@@H](c1ncncc1F)[C@](O)(Cn1cncn1)c1ccc(F)cc1F` [Voriconazole], for which the “Z.CTG (standard z score)” value with ISC-enriched organoids [2] (dose 0.08 uM) turned out to be 0.617; in the assay with ISC-enriched organoids [2] (dose 0.40 uM), 0.730; with ISC-enriched organoids [2] (dose 2.00 uM) it was 0.680; in the assay with ISC-enriched organoids [2] (dose 10.00 uM), 0.783.

For the molecule `C=CC(=O)Nc1cccc(Oc2nc(Nc3ccc(N4CCN(C)CC4)cc3OC)ncc2Cl)c1` [WZ4002], the “Z.CTG (standard z score)” value in the assay on ISC-enriched organoids [2] (dose 0.08 uM) is given as 0.748; in the assay with ISC-enriched organoids [2] (dose 0.40 uM) it was 0.196; in the assay on ISC-enriched organoids [2] (dose 2.00 uM), 0.360; in the assay with ISC-enriched organoids [2] (dose 10.00 uM), −2.248.

Take `Oc1nc(-c2ccc(C(F)(F)F)cc2)nc2c1CSCC2` [XAV-939]: the “Z.CTG (standard z score)” value with ISC-enriched organoids [2] (dose 0.08 uM) is −0.792; with ISC-enriched organoids [2] (dose 0.40 uM), −0.065; in the assay with ISC-enriched organoids [2] (dose 2.00 uM), −0.847; in the assay on ISC-enriched organoids [2] (dose 10.00 uM) it was −2.147.

Consider `CC(C)OC(=O)C1=CN(C(=O)c2ccc(F)c(F)c2)CC(C)(C)c2c1[nH]c1ccccc21` [XL335], for which the “Z.CTG (standard z score)” value is recorded as 0.297 in the assay on ISC-enriched organoids [2] (dose 0.08 uM), −0.615 in the assay on ISC-enriched organoids [2] (dose 0.40 uM), −0.619 with ISC-enriched organoids [2] (dose 2.00 uM) and −0.373 in the assay with ISC-enriched organoids [2] (dose 10.00 uM).

On to `O=c1ncccn1[C@@H]1O[C@H](CO)[C@@H](O)[C@H]1O` [Zebularine], for which the “Z.CTG (standard z score)” value is reported as 0.085 in the assay on ISC-enriched organoids [2] (dose 0.08 uM), 0.000 in the assay on ISC-enriched organoids [2] (dose 0.40 uM), −0.213 in the assay on ISC-enriched organoids [2] (dose 2.00 uM) and −0.399 with ISC-enriched organoids [2] (dose 10.00 uM).
